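Each compound was tested at five concentrations against cells in 96-well plates for 48 hours. GI50 is the concentration that inhibits growth by half.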 Activity calls are given as the source filed them. No stated cut-off is given here; in the data, active = GI50 up to about 1.1 µM and inactive = higher.
Assays:
Assay in all cases: NCI anticancer screen, dose series, 48 h
[1] = tested on: 786-0
[2] = tested on: A498
[3] = tested on: A549
[4] = tested on: ACHN
[5] = tested on: CAKI-1
[6] = tested on: CCRF-CEM
[7] = tested on: COLO 205
[8] = tested on: DU-145
[9] = tested on: EKVX
[10] = tested on: HCC 2998
[11] = tested on: HCT-116
[12] = tested on: HCT-15
[13] = tested on: HOP-62
[14] = tested on: HOP-92
[15] = tested on: HT-29
[16] = tested on: Hs-578T
[17] = tested on: IGROV-1
[18] = tested on: K562
[19] = tested on: KM12
[20] = tested on: LOX IMVI
[21] = tested on: M14
[22] = tested on: MCF7
[23] = tested on: MDA-MB-231
[24] = tested on: MDA-MB-435
[25] = tested on: MDA-N
[26] = tested on: MOLT-4
[27] = tested on: Malme-3M
[28] = tested on: NCI-H226
[29] = tested on: NCI-H23
[30] = tested on: NCI-H460
[31] = tested on: NCI-H522
[32] = tested on: NCI/ADR-RES
[33] = tested on: OVCAR-3
[34] = tested on: OVCAR-4
[35] = tested on: OVCAR-5
[36] = tested on: OVCAR-8
[37] = tested on: PC-3
[38] = tested on: RPMI-8226
[39] = tested on: RXF 393
[40] = tested on: SF-268
[41] = tested on: SF-295
[42] = tested on: SF-539
[43] = tested on: SK-MEL-28
[44] = tested on: SK-MEL-2
[45] = tested on: SK-MEL-5
[46] = tested on: SK-OV-3
[47] = tested on: SN12C
[48] = tested on: SNB-19
[49] = tested on: SNB-75
[50] = tested on: SR
[51] = tested on: SW-620
[52] = tested on: T47D
[53] = tested on: TK-10
[54] = tested on: U-251
[55] = tested on: UACC-257
[56] = tested on: UACC-62
[57] = tested on: UO-31
[58] = tested on: HL-60

Measured: GI50

COc1ccccc1NC(=S)N/N=C1\C(=O)Nc2ccccc21
active: [8] 0.762 µM | [40] 0.583 µM
> 100 µM: [12]
inactive: [1] > 100 µM | [2] > 100 µM | [3] > 100 µM | [4] > 100 µM | [5] > 100 µM | [6] > 100 µM | [7] > 100 µM | [9] 86.3 µM | [10] > 100 µM | [11] > 100 µM | [13] > 100 µM | [14] > 100 µM | [15] > 100 µM | [16] > 100 µM | [17] > 100 µM | [18] > 100 µM | [19] > 100 µM | [20] > 100 µM | [21] > 100 µM | [22] 42.6 µM | [23] > 100 µM | [24] > 100 µM | [25] > 100 µM | [26] > 100 µM | [27] > 100 µM | [28] > 100 µM | [29] > 100 µM | [30] > 100 µM | [31] > 100 µM | [32] > 100 µM | [33] 57.7 µM | [34] > 100 µM | [35] > 100 µM | [36] > 100 µM | [37] > 100 µM | [38] > 100 µM | [39] > 100 µM | [41] > 100 µM | [42] > 100 µM | [43] 3.29 µM | [44] > 100 µM | [45] 73.5 µM | [46] > 100 µM | [47] > 100 µM | [48] > 100 µM | [49] 58.9 µM | [50] > 100 µM | [51] > 100 µM | [52] > 100 µM | [53] > 100 µM | [54] > 100 µM | [55] > 100 µM | [56] > 100 µM | [57] > 100 µM

N=C(N)n1nc2c(c1O)CCCC2
> 100 µM: [12]
inactive: [1] > 100 µM | [2] 8.22 µM | [3] > 100 µM | [4] > 100 µM | [5] > 100 µM | [6] > 100 µM | [7] > 100 µM | [8] > 100 µM | [9] > 100 µM | [10] > 100 µM | [11] > 100 µM | [58] > 100 µM | [13] > 100 µM | [15] > 100 µM | [16] > 100 µM | [17] 65.2 µM | [18] > 100 µM | [19] > 100 µM | [20] > 100 µM | [21] > 100 µM | [22] > 100 µM | [23] > 100 µM | [24] > 100 µM | [25] > 100 µM | [26] > 100 µM | [27] > 100 µM | [28] > 100 µM | [29] > 100 µM | [30] > 100 µM | [31] > 100 µM | [32] > 100 µM | [33] > 100 µM | [34] > 100 µM | [35] > 100 µM | [36] > 100 µM | [37] > 100 µM | [38] > 100 µM | [39] > 100 µM | [40] > 100 µM | [41] > 100 µM | [42] > 100 µM | [43] > 100 µM | [44] > 100 µM | [45] > 100 µM | [46] > 100 µM | [47] > 100 µM | [48] > 100 µM | [49] 14.5 µM | [50] > 100 µM | [51] > 100 µM | [52] > 100 µM | [53] > 100 µM | [54] > 100 µM | [55] > 100 µM | [56] > 100 µM | [57] > 100 µM

Reference: ChEMBL document CHEMBL1201862, “PubChem BioAssay data set” (2004)
